Assay results from US20240343732A1, “COMPOUNDS FOR DEGRADATION OF CYCLIN-DEPENDENT KINASE 7(CDK7)” (QURIENT CO., LTD., priority 2021, published 2024).
pIC50: −log10 of the molar value.

What was measured:
[1] = target: T1, CDK7 protein (Homo sapiens, UniProt P50613); assay: Western blot assay for CDK7 protein degradation in A2780 cells; type: cell-based; settings: 24 hours; for DC50: read-out: Compound concentration that caused 50% CDK7 protein degradation in A2780 cells (DC50);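 on all read-outs here: A is DC50 up to 100 nM B is 100 to 1000 nM C is above 1000 nM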
T1 construct: To verify endogenous CDK7 protein degradation; endogenous in cells; host or cells: A2780 (ECACC 93112519)
Experimental: Human ovarian cancer cell line, A2780 (Cat #93112519) was obtained from ECACC. Cells were grown in RPMI-1640 media (Invitrogen, Cat #22400105) supplemented with 10% FBS (Hyclone, Cat #SH30084.03) and 1% penicillin/streptomycin (Hyclone, Cat #SV30010) and cultured at 37° C., 5% Co2 in a humidified chamber. All cell lines were routinely tested for mycoplasma.
To verify endogenous CDK7 protein degradation upon treatment of CDK7-specific degrader, the western blot assay was conducted a 24 hours' time period. 6×10^5 cells/well of A2780 cells were plated in 6-well plate. After 24 hours, the cells were treated with various concentrations of the compound corresponding range. DMSO solvent without compound served as a control and final DMSO concentration was not to exceed 0.1% of total volume. After 24 hours of incubation at 37° C., 5% Co2 incubator, cells were collected and lysed with 60 ul of lysis buffer. Collected lysates were incubated for 30 min on ice and collect supernatant through centrifugation at 12,000 rpm for 10 min at 4° C. The protein in lysates were quantified with BCA protein quantification kit (Pierce, Cat #23227) following manufacture's protocol. Cell lysates were diluted into 1 ug/ul of concentration with lysis buffer. 20 ug of protein was loaded to each well of 4˜12% Bis-Tris gel (Invitrogen, Cat #NP0336BOX) with MOPS running buffer (Invitrogen, Cat #NP0001). The proteins were transferred from gel to membrane and incubated with primary antibody as followed at 4° C. overnight; CDK7 (CST, Cat #2090S) and β-actin (Santa Cruz, Cat #sc-47778) 1:20,000. The signals were developed and acquired with ImageQuant™ LAS 4000.

[2] = target: T2, CDK7/CycH/MNAT1 (Homo sapiens, UniProt P50613); assay: Binding assay (FRET, LanthaScreen Eu, Tracer236) for CDK7; settings: read-out: CDK7 IC50 (enzyme binding assay)
T2 construct: His; purchased Invitrogen PR6749B
Experimental: (§1) Inhibition activity of compound to CDK7 kinase was tested in a binding assay which was applied to the FRET (fluorescence resonance energy transfer) principle from the europium (Eu) donor fluorophore to the acceptor fluorophore on the kinase tracer. Test compounds were made to 1.125 mM of compound solution, and then this compound solution 4-fold serial diluted in 8 steps using an automated liquid handler (JANUS™, PerkinElmer). 80 nL/well of each diluted compound solution was added into the 384-well plate (Greiner, Cat #784075) first and 7.5 ul/well of working solution [5 nM of CDK7/CycH/MNAT1 (Invitrogen, Cat #PR6749B), 4 nM of Biotin anti-His Tag Antibody (Invitrogen, Cat #PV6090), and LanthaScreen® Eu-Streptavidin (Invitrogen, Cat #PV6025)] was added. After mixing the solution well, the same volume with the working solution of Tracer236 (Invitrogen, Cat #PV5592) was added into each well in the plate. The plate was incubated for 60 minutes at room temperature and then all the fluorescence were measured using Envision leader (Perkin Elmer, USA) [Laser as excitation light; […] as the first and the second emission filter]. Data was analysed using XL Fit software.
(§2) All of the synthesized compounds were screened in the above-mentioned assay procedure. To identify the inhibition activity of compounds for other CDKs including CDK1 (Invitrogen, Cat #PR4768C), CDK2 (Invitrogen, Cat #PR4448B) and CDK5 (Invitrogen, Cat #PR8543B) were tested using the same protocol under reasonable concentration of Tracer236 and kinases for each assay. The formula for the assay buffer summarized in below table.

[3] = target: T3, CDK2 (Homo sapiens, UniProt P24941); assay: Binding assay (FRET, LanthaScreen Eu, Tracer236) for CDK2; settings: for pIC50: read-out: CDK2 IC50 (enzyme binding assay)
T3 construct: His; purchased Invitrogen PR4448B
Experimental: as §1, §2

[4] = target: T4, CDK5 (Homo sapiens, UniProt Q00535); assay: Binding assay (FRET, LanthaScreen Eu, Tracer236) for CDK5; settings: for pIC50: read-out: CDK5 IC50 (enzyme binding assay)
T4 construct: His; purchased Invitrogen PR8543B
Experimental: as §1, §2

[5] = target: T5, CDK1 (Homo sapiens, UniProt P06493); assay: Binding assay (FRET, LanthaScreen Eu, Tracer236) for CDK1; settings: for pIC50: read-out: CDK1 IC50 (enzyme binding assay)
T5 construct: His; purchased Invitrogen PR4768C
Experimental: as §1, §2

T1 sequence (P50613 whole entry): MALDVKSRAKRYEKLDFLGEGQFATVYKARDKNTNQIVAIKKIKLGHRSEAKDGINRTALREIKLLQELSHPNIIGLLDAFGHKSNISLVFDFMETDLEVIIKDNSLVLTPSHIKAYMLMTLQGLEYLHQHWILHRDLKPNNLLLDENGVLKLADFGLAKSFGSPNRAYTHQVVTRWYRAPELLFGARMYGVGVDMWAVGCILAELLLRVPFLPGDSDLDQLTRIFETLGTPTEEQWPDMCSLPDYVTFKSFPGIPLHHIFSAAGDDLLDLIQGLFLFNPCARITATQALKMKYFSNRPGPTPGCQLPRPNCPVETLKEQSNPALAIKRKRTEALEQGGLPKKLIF
T2 sequence (P50613 whole entry): as above
T2 sequence (P51946 whole entry partner): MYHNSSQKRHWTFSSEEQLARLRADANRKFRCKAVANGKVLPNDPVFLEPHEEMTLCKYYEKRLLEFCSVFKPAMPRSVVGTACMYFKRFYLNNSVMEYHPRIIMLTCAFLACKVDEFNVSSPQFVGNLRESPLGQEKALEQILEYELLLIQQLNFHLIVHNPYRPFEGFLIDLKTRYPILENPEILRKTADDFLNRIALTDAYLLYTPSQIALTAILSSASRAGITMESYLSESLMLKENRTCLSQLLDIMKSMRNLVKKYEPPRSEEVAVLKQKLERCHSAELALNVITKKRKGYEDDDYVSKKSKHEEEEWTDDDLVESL
T2 sequence (P51948 whole entry partner): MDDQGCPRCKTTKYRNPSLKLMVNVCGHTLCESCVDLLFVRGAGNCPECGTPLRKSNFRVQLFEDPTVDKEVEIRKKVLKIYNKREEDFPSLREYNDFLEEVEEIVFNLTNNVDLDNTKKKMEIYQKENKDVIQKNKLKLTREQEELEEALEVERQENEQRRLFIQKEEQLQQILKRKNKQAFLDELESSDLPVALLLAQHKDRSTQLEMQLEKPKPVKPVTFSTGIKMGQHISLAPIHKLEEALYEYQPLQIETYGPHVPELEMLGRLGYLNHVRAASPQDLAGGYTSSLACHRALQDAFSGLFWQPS
T4 sequence (Q00535 whole entry): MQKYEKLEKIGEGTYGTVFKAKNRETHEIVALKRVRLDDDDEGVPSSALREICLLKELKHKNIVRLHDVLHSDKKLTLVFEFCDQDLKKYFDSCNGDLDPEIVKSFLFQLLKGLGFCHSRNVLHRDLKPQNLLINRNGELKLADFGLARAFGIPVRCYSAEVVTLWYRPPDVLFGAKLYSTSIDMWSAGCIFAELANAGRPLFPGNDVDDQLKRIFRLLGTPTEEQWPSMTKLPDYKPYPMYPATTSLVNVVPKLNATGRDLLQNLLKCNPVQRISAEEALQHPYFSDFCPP
T4 sequence (Q15078 99-307 partner limits assumed): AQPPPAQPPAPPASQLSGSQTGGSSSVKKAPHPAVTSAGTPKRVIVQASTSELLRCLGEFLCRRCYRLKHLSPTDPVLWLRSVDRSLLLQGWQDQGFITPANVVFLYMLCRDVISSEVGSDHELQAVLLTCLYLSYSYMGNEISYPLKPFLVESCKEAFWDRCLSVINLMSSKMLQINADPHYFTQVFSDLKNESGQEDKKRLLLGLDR
T5 sequence (P06493 whole entry): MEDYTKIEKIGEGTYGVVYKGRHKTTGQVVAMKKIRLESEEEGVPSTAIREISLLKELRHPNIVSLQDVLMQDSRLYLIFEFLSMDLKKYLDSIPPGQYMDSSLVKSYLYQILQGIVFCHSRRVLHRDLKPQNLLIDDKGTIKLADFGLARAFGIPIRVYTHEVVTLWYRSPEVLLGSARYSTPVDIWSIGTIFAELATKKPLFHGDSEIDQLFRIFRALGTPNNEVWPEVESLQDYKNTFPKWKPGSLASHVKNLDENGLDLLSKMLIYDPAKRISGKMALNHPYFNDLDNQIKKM
T5 sequence (P14635 whole entry partner): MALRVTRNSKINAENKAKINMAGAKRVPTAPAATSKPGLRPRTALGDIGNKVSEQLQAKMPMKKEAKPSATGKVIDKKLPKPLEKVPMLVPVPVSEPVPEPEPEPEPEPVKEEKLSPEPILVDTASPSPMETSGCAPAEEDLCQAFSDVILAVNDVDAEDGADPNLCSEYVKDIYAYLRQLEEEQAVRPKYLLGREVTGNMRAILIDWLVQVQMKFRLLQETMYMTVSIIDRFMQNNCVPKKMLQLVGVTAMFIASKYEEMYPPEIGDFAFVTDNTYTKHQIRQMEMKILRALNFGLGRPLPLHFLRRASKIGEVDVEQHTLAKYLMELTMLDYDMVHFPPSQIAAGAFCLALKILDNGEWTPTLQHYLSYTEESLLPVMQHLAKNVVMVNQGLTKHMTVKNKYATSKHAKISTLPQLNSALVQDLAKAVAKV

Compound concentration that caused 50% CDK7 protein degradation in A2780 cells (DC50, nM) [1]	DC50 [1] [nM]	pIC50 [2]	CDK2/CDK7: Selectivity of CDK7 inhibition over CDK2 inhibition [3]	pIC50 [3]	CDK5/CDK7: Selectivity of CDK7 inhibition over CDK5 inhibition [4]	pIC50 [4]	CDK1/CDK7: Selectivity of CDK7 inhibition over CDK1 inhibition [5]	pIC50 [5]	Compound
B or A	100 to 1000	≥ 7.00	A (A indicates [fold] > 500)	< 6.00	A (A indicates [fold] > 500)	< 6.00	A (A indicates [fold] > 500)	< 6.00	CC(C)c1cnn2c(NCc3ccccc3-c3nccc4cc(NCCOCCOCCNC(=O)CNc5ccc6c(c5)CN(C5CCC(=O)NC5=O)C6=O)ccc34)nc(O[C@@H]3CCCNC3)nc12 (stereo partly drawn) [Compound 16]
–	≤ 100	≥ 7.00	A (A indicates [fold] > 500)	< 6.00	B (B indicates 50 < [fold] ≤ 500)	< 6.00	A (A indicates [fold] > 500)	< 6.00	CC(C)c1cnn2c(NCc3ccccc3-c3nccc4cc(NCC5CCN(C6CCN(c7ccc8c(c7)C(=O)N(C7CCC(=O)NC7=O)C8=O)CC6)CC5)ccc34)nc(O[C@@H]3CCCNC3)nc12 (stereo partly drawn) [Compound 31]
B or A	100 to 1000	≥ 7.00	A (A indicates [fold] > 500)	< 6.00	A (A indicates [fold] > 500)	< 6.00	A (A indicates [fold] > 500)	< 6.00	CC(C)c1cnn2c(NCc3ccccc3-c3nccc4cc(NCCOCCOCCNC(=O)CNc5cccc6c5C(=O)N(C5CCC(=O)NC5=O)C6=O)ccc34)nc(O[C@@H]3CCCNC3)nc12 (stereo partly drawn) [Compound 7]
–	≤ 100	≥ 7.00	A (A indicates [fold] > 500)	< 6.00	A (A indicates [fold] > 500)	< 6.00	A (A indicates [fold] > 500)	< 6.00	Cc1ncsc1-c1ccc([C@H](C)NC(=O)[C@@H]2C[C@@H](O)CN2C(=O)[C@@H](NC(=O)CCOCCOCCNc2ccc3c(-c4ccccc4CNc4nc(O[C@@H]5CCCNC5)nc5c(C(C)C)cnn45)nccc3c2)C(C)(C)C)cc1 [Compound 17]
–	≤ 100	≥ 7.00	A (A indicates [fold] > 500)	< 6.00	A (A indicates [fold] > 500)	< 6.00	A (A indicates [fold] > 500)	< 6.00	Cc1ncsc1-c1ccc(CNC(=O)[C@@H]2C[C@@H](O)CN2C(=O)[C@@H](NC(=O)C2(F)CC2)C(C)(C)C)c(OCCOCCOCCNc2ccc3c(-c4ccccc4CNc4nc(O[C@@H]5CCCNC5)nc5c(C(C)C)cnn45)nccc3c2)c1 [Compound 11]
B or A	–	≥ 7.00	A (A indicates [fold] > 500)	< 6.00	A (A indicates [fold] > 500)	< 6.00	A (A indicates [fold] > 500)	< 6.00	CC(C)c1cnn2c(NCc3ccccc3-c3nccc4cc(NC(=O)COCCOCCOCCNC(=O)CNc5cccc6c5C(=O)N(C5CCC(=O)NC5=O)C6=O)ccc34)nc(O[C@@H]3CCCNC3)nc12 (stereo partly drawn) [Compound 9]

The next lines start with the molecule.

Compound	Compound concentration that caused 50% CDK7 protein degradation in A2780 cells (DC50, nM) [1]	DC50 [1] [nM]	pIC50 [2]	CDK2/CDK7: Selectivity of CDK7 inhibition over CDK2 inhibition [3]	pIC50 [3]	CDK5/CDK7: Selectivity of CDK7 inhibition over CDK5 inhibition [4]	pIC50 [4]	CDK1/CDK7: Selectivity of CDK7 inhibition over CDK1 inhibition [5]	pIC50 [5]
Cc1cc([C@@H](C(=O)N2C[C@H](O)C[C@H]2C(=O)NCc2ccc(-c3scnc3C)cc2OCCOCCOCCNc2ccc3c(-c4ccccc4CNc4nc(O[C@@H]5CCCNC5)nc5c(C(C)C)cnn45)nccc3c2)C(C)C)on1 [Compound 26]	–	> 1000	≥ 7.00	A (A indicates [fold] > 500)	< 6.00	A (A indicates [fold] > 500)	< 6.00	A (A indicates [fold] > 500)	< 6.00
Cc1ncsc1-c1ccc(CNC(=O)[C@@H]2C[C@@H](O)CN2C(=O)[C@@H](NC(=O)C2(F)CC2)C(C)(C)C)c(OCCCCCCCCNc2ccc3c(-c4ccccc4CNc4nc(O[C@@H]5CCCNC5)nc5c(C(C)C)cnn45)nccc3c2)c1 [Compound 22]	B or A	100 to 1000	6.00 to 7.00	A (A indicates [fold] > 500)	< 6.00	B (B indicates 50 < [fold] ≤ 500)	< 6.00	A (A indicates [fold] > 500)	< 6.00
Cc1cc([C@H](C(=O)N2C[C@H](O)C[C@H]2C(=O)NCc2ccc(-c3scnc3C)cc2OCCOCCOCCNc2ccc3c(-c4ccccc4CNc4nc(O[C@@H]5CCCNC5)nc5c(C(C)C)cnn45)nccc3c2)C(C)C)on1 [Compound 27]	–	≤ 100	6.00 to 7.00	B (B indicates 50 < [fold] ≤ 500)	< 6.00	B (B indicates 50 < [fold] ≤ 500)	< 6.00	B (B indicates 50 < [fold] ≤ 500)	< 6.00
CC(C)c1cnn2c(NCc3ccccc3-c3nccc4cc(N5CCN(CC6CCN(c7ccc8c(c7)C(=O)N(C7CCC(=O)NC7=O)C8=O)CC6)CC5)ccc34)nc(O[C@@H]3CCCNC3)nc12 (stereo partly drawn) [Compound 33]	–	≤ 100	≥ 7.00	A (A indicates [fold] > 500)	< 6.00	B (B indicates 50 < [fold] ≤ 500)	< 6.00	A (A indicates [fold] > 500)	< 6.00
CC(C)c1cnn2c(NCc3ccccc3-c3nccc4cc(N5CCC(CN6CCN(c7ccc8c(c7)C(=O)N(C7CCC(=O)NC7=O)C8=O)CC6)CC5)ccc34)nc(O[C@@H]3CCCNC3)nc12 (stereo partly drawn) [Compound 34]	–	≤ 100	≥ 7.00	A (A indicates [fold] > 500)	< 6.00	A (A indicates [fold] > 500)	< 6.00	A (A indicates [fold] > 500)	< 6.00
CC(C)c1cnn2c(NCc3ccccc3-c3nccc4cc(NCC5CCN(CC6CCN(c7ccc8c(c7)C(=O)N(C7CCC(=O)NC7=O)C8=O)CC6)CC5)ccc34)nc(N[C@@H]3CCCNC3)nc12 (stereo partly drawn) [Compound 32]	–	≤ 100	≥ 7.00	A (A indicates [fold] > 500)	< 6.00	B (B indicates 50 < [fold] ≤ 500)	< 6.00	A (A indicates [fold] > 500)	< 6.00
